Data from patent US9133239B2, “Compositions and methods for inhibiting matrix metalloproteinase (MMP)-mediated cell migration” (THE RESEARCH FOUNDATION FOR THE STATE UNIVERSITY OF NEW YORK, priority 2010, dated 2015).
Read-outs that look alike come from different tables or passages of the source. Where a SMILES comes first, the peptide text is derived from it. Where no end group is shown, it is not given here.

Experiments:
[1] = tested on: GFP expressing MDA-MB-435 cells; assay: Mammary fat pad tumor growth and lung metastasis model; type: in vivo, immunodeficient female mice; details: 20 mg/kg/day i.p. and intratumoral alternatively; after twelve weeks
Method: 2×10^6 GFP expressing MDA-MB-435 cells were injected in the mammary fat pad of immunodeficient female mice followed by administering 20 mg/kg/day of specific and scrambled peptides via i.p. and intratumoral injection, alternatively. Primary tumor size was monitored over a 10-week time course. Inhibitory peptides had no effect on tumor growth (A). After twelve weeks, the mice were sacrificed and the organs were pathologically examined. The lungs were sliced into 3 mm thick sections. The incidence of lung metastasis was assessed by examining metastatic tumors in the lungs (B). The number (C) and size (D) of metastasized tumors in the lungs were microscopically counted based on GFP expression and measured using Nikon NIS Elements Imaging software, respectively.

[2] = tested on: MT1-MMP-mediated cell migration (LNCaP); assay: FITC-fibronectin degradation assay and Transwell chamber migration assay with GST-MTPEX; type: cell-based
Excerpt: Our results and others emphasized the critical role of the PEX domain of MT1-MMP in cells migration (8,57). […] As proof of this hypothesis, we generated chimeric cDNAs encoding GST and GST-MTPEX chimera.

[3] = tested on: COS-1 cells transfected with MT1-MMP cDNA; assay: Cell migration of MT1-MMP transfected COS-1 cells; type: cell-based
Excerpt: (§1) Based on our studies of the structure-function relationship of the MT1-MMP hemopexin (PEX)-like domain, we designed and synthesized peptides mimicking 8 amino acids of the outermost β strand of blades I, II, III and IV from the PEX domain, named IS4-8 ([…]) (SEQ ID NO:01), IIS4-8 ([…]) (SEQ ID NO:02), and IVS4-8 ([…]) (SEQ ID NO:03), respectively. Corresponding scrambled peptides were synthesized as controls. […] We further designed truncated forms of IS4-8 and IVS-8 peptides from the N- and C-terminus of the peptides. The C-terminal 5 amino acids of the IS4-8, named IS4-5 (GYPMP) (SEQ ID NO:04) is essential for inhibition of functional MT1-MMP. […] Thus, the PEX domain of MT1-MMP is a high-specificity target for interference with MT1-MMP-induced cancer cell invasion and for identification of cancer cells expressing MT1-MMP. These novel bi-functional inhibitory peptides will provide specificity with limited systemic toxicity.

[4] = tested on: human MDA-MB-231 breast cancer cells; assay: Cell migration of MDA-MB-231 cells expressing endogenous MT1-MMP; type: cell-based
Excerpt: as §1

[5] = tested on: human MDA-MB-231, and -435 breast cancer cells (-435); assay: Cell migration of MDA-MB-435 cells expressing endogenous MT1-MMP; type: cell-based
Excerpt: as §1

[6] = tested on: human HT1080 fibrosarcoma cells; assay: Cell migration of HT1080 cells expressing endogenous MT1-MMP; type: cell-based
Excerpt: as §1

[7] = tested on: cell migration induced by MMP-9; assay: Cell migration induced by MMP-9 (specificity); type: cell-based
Excerpt: as §1
(§2) The term “specifically reduces cell migration that is mediated by MT1-MMP” when in reference to a composition means that the composition reduces cell migration that is mediated by MT1-MMP, in the absence of a reduction of cell migration that is mediated by MMP-9 and/or MT3-MMP and/or MT6-MMP (FIG. 7).

[8] = tested on: cell migration induced by MT6-MMP; assay: Cell migration induced by MT6-MMP (specificity); type: cell-based
Excerpt: as §1, §2

[9] = tested on: human breast cancer MCF-7 cells ectopically expressing MT1-MMP; assay: proMMP-2 activation by gelatin zymography of conditioned medium; type: cell-based; details: MCF-7 cells expressing MT1-MMP
Excerpt: The conditioned medium from human breast cancer MCF-7 cells ectopically expressing MT1-MMP in the presence of scrambled peptides or specific peptides was examined by gelatin zymography to determine whether interference with the PEX domain of MT1-MMP by the peptides also affects the proteolytic activity of MT1-MMP.

[10] = tested on: human MDA-MB-231 breast cancer cell
[11] = tested on: MT1-GFP expressing LNCaP cells; assay: Cell surface E-cadherin shedding; type: cell-based, human
Method: To examine if shedding of E-cadherin at cell-cell adherens junctions correlated with loss of cell surface E-cadherin, biotinylation of cell surface proteins followed by streptavdin precipitation and Western blotting using anti-E-cadherin antibody was performed (51).

[12] = tested on: MT1-GFP expressing LNCaP cells; assay: FITC-labeled Matrigel degradation in the presence of proMMP-2; type: cell-based, human
Excerpt: To examine the role of MT1-MMP in invasion through basement membrane in an in vitro assay, we labeled Matrigel, a soluble basement membrane matrix from the EHS tumor with FITC. Western blotting using anti-type IV collagen and anti-laminin V antibodies confirmed that type IV collagen and laminin V remained intact in FITC-labeled Matrigel. Using FITC-labeled Matrigel-coated coverslips, LNCaP cells producing MT1-GFP were examined for Matrigel degradation. MT1-MMP expressing LNCaP cells readily degraded the FITC-labeled substrate (depicted by loss of fluorescence-labeled Matrigel in FIG. 31A-a).

MT1-GFP expressing cells = assay: Combined FITC-labeled fibronectin substrate degradation and phagokinetic assay; type: cell-based
Excerpt: Using FITC-labeled gelatin coated coverslips and engineered MT1-MMP substitution mutations, structure-function relationships of MT1-MMP in cell invasion and migration were studied by domain shuffling experiments (FIG. 32A). As expected, MT1-MMP expressing cells degraded FITC-labeled gelatin and migrated over digested substrate (FIG. 32B). […] To examine the effect of proteolytic activity of MT1-MMP on cell migration, we employed a natural MMP inhibitor, TIMP-2 in combined FITC-labeled substrate degradation assay and phagokinetic assay (54) by coating coverslips with both FIT-labeled fibronectin and colloidal gold particles.

[13] = tested on: MT1-GFP expressing LNCaP cells; assay: Cell scattering in 3D type I collagen gel; type: cell-based, human; details: TIMP-2 10 nM
Excerpt: Although increasing evidence highlight the importance of proteolytic remodeling of the ECM during invasion (65,66), recent reports have challenged this concept showing that the ability of tumor cells to migrate through collagenous barriers by switching to an amoeboid-like form was independent on proteinases (67). This observation, however, was possible due to reversible MMP inhibitors and low concentration of inhibitors (68). […] Employing a 3-dimensional (3D) culture in native type I collagen gel, we examined the cell scattering effect of MT1-GFP. […] GFP-alone expressing LNCaP cells formed spherical aggregates (FIG. 37A-a2-a3), while MT-GFP expressing LNCaP cells presented a scattered distribution in the gels (FIG. 37-b2-b3). H & E staining of frozen sections confirmed this observation (FIG. 37A-a4,b4).

cells expressing MT1-MMP = assay: Flow cytometry binding to cells; details: flow cytometry analysis
Excerpt: as §1

Which “lung metastasis (degree/number of metastasized tumors)” value [1] does the source give for “IS4: MT1-MMP specific inhibitory IS4 peptide given to mice in Example 27; length (IS4-8 or IS4-5) not stated (VMDGYPMP)” here?
Its value is “reduced”.

And the “tumor foci area (size) in the lung” value [1]?
The value was “tumor sizes in scramble peptide treated mice were noticeably larger”.

What does the source list for “GST-tagged MTPEX protein: purified GST fusion protein of the PEX domain of MT1-MMP”?
MT1-MMP-mediated cell migration [2]: inhibited MT1-MMP-mediated cell migration; MT1-MMP-mediated cell migration ([2]; listed as MT1-MMPPEX): inhibited MT1-MMP-medicated LNCaP cell migration; MT1-MMP-mediated cell migration ([2]; listed as recombinant MT1-PEX protein): blocked MT1-MMP-mediated cell migration

How did the cell migration [3] turn out when CSCC[C@H](NC(=O)[C@@H](N)C(C)C)C(=O)N[C@@H](CC(=O)O)C(=O)NCC(=O)N[C@@H](Cc1ccc(O)cc1)C(=O)N1CCC[C@H]1C(=O)N[C@@H](CCSC)C(=O)N1CCC[C@H]1C(=O)O [IS4-8] (H-VMDGYPMP-OH; N-terminus and C-terminus assumed) was run?
The cell migration was “reduce cell migration”.

And the cell migration [4]?
The cell migration was “reduce cell migration”.

What about the cell migration [5] of the same compound?
Its cell migration is “reduce cell migration”.

And the cell migration [6]?
The cell migration was “reduce cell migration”.

And the “cell migration induced by MMP-9” value [7]?
The value was “do not affect cell migration”.

What about the “cell migration induced by MT6-MMP” value [8] of the same compound?
The value was “do not affect cell migration”.

What about the “MT1-MMP-induced proMMP-2 activation” value [9] of the same compound?
Its value is “specifically inhibited”.

What about the IC50 [10] of the same compound?
Its IC50 is 1500 nM.

Which results are given for “tissue inhibitor of matrix metalloproteinase-2 [TIMP-2]”?
cell surface E-cadherin shedding [11]: interfered with cell surface E-cadherin shedding; digestion of FITC-labeled Matrigel [12]: totally abolished the digestion of Matrigel; substrate degradation (FITC-labeled fibronectin) (MT1-GFP expressing cells): interfered with substrate degradation; scattered distribution of cells in type I collagen gel [13]: abolished

What does the source list for CC(C)C[C@H](NC(=O)[C@H](C)NC(=O)[C@H](CO)NC(=O)[C@H](CCCCN)NC(=O)[C@@H]1CCCN1C(=O)[C@H](Cc1ccc(O)cc1)NC(=O)CN)C(=O)N[C@@H](CCCNC(=N)N)C(=O)O [IVS4-8] (H-GYPKSALR-OH; N-terminus and C-terminus assumed)?
cell migration [3]: reduce cell migration; cell migration [4]: reduce cell migration; cell migration [5]: reduce cell migration; cell migration [6]: reduce cell migration; cell migration induced by MMP-9 [7]: do not affect cell migration; cell migration induced by MT6-MMP [8]: do not affect cell migration; IC50 [10]: 10000 nM

What does the source list for “TIMP-1: recombinant TIMP-1, tissue inhibitor of metalloproteinases used as control inhibitor”?
cell migration over Matrigel [12]: did not interfere with cell migration; digestion of FITC-labeled Matrigel [12]: partial inhibition of substrate digestion

Which “lung metastasis (degree/number of metastasized tumors)” value [1] does the source give for “IVS4: MT1-MMP specific inhibitory IVS4 peptide given to mice in Example 27; probably IVS4-8 (GYPKSALR)” here?
The value was “reduced”.

And the “tumor foci area (size) in the lung” value [1]?
The value was “tumor sizes in scramble peptide treated mice were noticeably larger”.

CSCC[C@H](NC(=O)[C@@H]1CCCN1C(=O)[C@H](Cc1ccc(O)cc1)NC(=O)CN)C(=O)N1CCC[C@H]1C(=O)O [IS4-5, GYPMP] (H-GYPMP-OH; N-terminus and C-terminus assumed) was tested. Which “MT1-MMP-induced proMMP-2 activation” value [9] did it give?
Its value is “specifically inhibited”.

And the IC50 [10]?
Its IC50 is 1500 nM.

For “biotinylated IS4-5: biotinylated IS4-5 (GYPMP) peptide used for flow cytometry (also: biotinylated, position not given here)”, which “binding to cells expressing MT1-MMP” value (cells expressing MT1-MMP) is on record?
Its value is “specifically binds to cells expressing MT1-MMP”.
